Measured values taken from patent US20170275287A1, “NOVEL N2, N4, N7, 6-TETRASUBSTITUTED PTERIDINE-2,4,7-TRIAMINE AND 2, 4, 6, 7-TETRASUBSTITUTED PTERIDINE COMPOUNDS AND METHODS OF SYNTHESIS AND USE THEREOF” (Janus Biotherapeutics, Inc., priority 2014, published 2017).
Like-named read-outs stand apart in the source and are kept apart here.

How the values were obtained:
[1] = biological target: T1, TLR7 (Mus musculus, UniProt P58681); experiment: In vivo TLR7 knockdown (JB6011 agonist challenge); design: species or system mice; conditions: for ED50: translated for a 25 gram mouse
T1 construct: endogenous in cells
T1 sequence (P58681 27-1050): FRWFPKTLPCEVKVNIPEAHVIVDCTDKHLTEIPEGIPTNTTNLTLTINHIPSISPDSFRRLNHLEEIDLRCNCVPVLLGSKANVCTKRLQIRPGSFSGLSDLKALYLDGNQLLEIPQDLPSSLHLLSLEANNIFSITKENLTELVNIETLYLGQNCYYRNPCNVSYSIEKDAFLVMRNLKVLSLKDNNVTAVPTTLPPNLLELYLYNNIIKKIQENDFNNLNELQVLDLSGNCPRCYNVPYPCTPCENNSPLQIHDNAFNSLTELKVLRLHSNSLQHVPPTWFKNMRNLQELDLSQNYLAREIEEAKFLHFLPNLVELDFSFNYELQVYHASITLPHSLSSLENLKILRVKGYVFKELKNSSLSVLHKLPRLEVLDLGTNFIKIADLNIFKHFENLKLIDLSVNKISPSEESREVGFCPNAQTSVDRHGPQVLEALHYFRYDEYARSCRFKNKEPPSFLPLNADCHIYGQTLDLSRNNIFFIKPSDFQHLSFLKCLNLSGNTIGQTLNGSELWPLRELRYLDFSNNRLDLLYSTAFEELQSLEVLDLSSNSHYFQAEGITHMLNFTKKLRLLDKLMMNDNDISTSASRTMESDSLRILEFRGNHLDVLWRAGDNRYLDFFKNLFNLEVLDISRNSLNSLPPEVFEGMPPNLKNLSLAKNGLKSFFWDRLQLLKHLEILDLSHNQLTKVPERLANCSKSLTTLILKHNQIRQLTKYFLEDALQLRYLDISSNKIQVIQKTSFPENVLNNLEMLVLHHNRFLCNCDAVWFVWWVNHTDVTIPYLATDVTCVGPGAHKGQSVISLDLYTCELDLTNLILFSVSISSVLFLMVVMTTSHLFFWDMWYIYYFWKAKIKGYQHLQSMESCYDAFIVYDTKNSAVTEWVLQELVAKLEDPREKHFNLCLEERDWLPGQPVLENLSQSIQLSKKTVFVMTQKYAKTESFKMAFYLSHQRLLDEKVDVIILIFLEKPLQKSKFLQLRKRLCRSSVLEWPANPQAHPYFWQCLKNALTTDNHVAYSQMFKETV
Experimental: Mice were treated with test antagonist at varying doses at T=0 hr. Agonist treatment (CpG-DNA) dosed one hour later, T=1 hr for IP groups and two hours later, T=2 hr for PO groups. Necropsy performed 3 hours post agonist treatment, T=4 hr (IP groups) or T=5 hr (PO groups). Serum cytokines induced by the TLR agonist are measured by ELISA. Groups size per dose, n=3. The mean+/−SD of two independent ELISA's at differing serum dilutions is plotted.
JB6121 was also tested in vivo for TLR7 knockdown activity utilizing the TLR7 small molecule agonist JB6011 as the agonist challenge. […] This roughly translates to a 3.92 mg/kg IP dose and 11.44 mg/kg PO dose for a 25 gram mouse.

[2] = PK/PD study: whole blood JB6121 after 7 days oral dosing; format: in vivo, Sprague-Dawley rats; conditions: for AUC(0-t)/D / Cmax/D / AUC(0-t) / Cmax / Tmax / AUC / half-life: Day 7; for AUC(0-t) / Cmax / Tmax / concentration at 2 h / concentration at 3 h / concentration at 4 h / concentration at 5 h / AUC / half-life: Sprague-Dawley, rat, whole blood; for concentration at 2 h: Day 7, 2 h; for concentration at 3 h: Day 7, 3 h; for concentration at 4 h: Day 7, 4 h; for concentration at 5 h: Day 7, 5 h; for AUC: read-out: AUC Extrap; for half-life: read-out: t½ (converted)
Experimental: The objective of this study was to collect serum following ODN CpG 1668 administration and to determine the pharmacokinetics of JB6121 following oral administration to Sprague-Dawley rats for 7 days. There was a pre-test to establish the appropriate agonist dose for a TLR9 ligand, CpG DNA ODN 1668, in rats using serum IL-12 as the monitored cytokine, groups 1-3, see table 6. Whole blood samples for serum were collected terminally from each animal 3 hours following dosing with ODN CpG 1668. Serum IL-12 was determined by ELISA, data not shown. An agonist dose of lmg/kg was selected for the next phase of the study. For groups administered JB6121 (Groups 4-7), formulations were corrected for base/salt components and not corrected for purity. On the initial day of dose administration, JB6121 formulations were prepared using sterile PBS to the adjusted target dosing concentrations using a factor of 0.8265 to correct for salt content. Dosing was performed as outlined in the following Table 9.
Animals were assigned to four groups (groups 4-7) and administered JB6121 at 0.39, 1.56, 6.25, or 25 mg/kg in a volume of […] once per day by oral gavage for 7 days. On Day 7, two hours following the JB6121 dose (approximate Cmax), ODN CpG 1668 was administered as a single IP dose at 1 mg/kg in a volume of 1 mL/kg. Whole blood samples for bioanalysis and serum samples for serum cytokine analysis were collected by tail vein bleeding or terminally by cardiac puncture at t=2, 3, 4 and 5 h.

[3] = system: five bacterial strains; experiment: Non-GLP AMES test (BioRelience); conditions: five bacterial strains plus or minus S9 fraction to 5000 μg
Experimental: A non-GLP AMES test study was performed by BioRelience Inc, MD according to Maron, D. M. and Ames, B. N., 1983, Mutation Res., 113:173-215. The test was performed in five bacterial strains plus or minus S9 fraction to 5000 μg.

## CN1CCN(c2nc(NCCN3CCOCC3)c3nc(Cl)c(NCCN4CCOCC4)nc3n2)CC1 [JB6121, 6-chloro-2-(4-methylpiperazin-1-yl)-N^4,N^7-bis(2-morpholinoethyl)pteridine-4,7-diamine]
[1]; 4 h, IP, read-out: ID50, TLR7 knockdown, IP dose
  ED50: ~3.92 mg/kg
[1]; 5 h, PO, read-out: ID50, TLR7 knockdown, PO dose
  ED50: ~11.4 mg/kg
[1]; mice, IP, JB6011 challenge
  ID50, TLR7 knockdown, IP injection: 98.34 μg injection dose
[1]; mice, PO, JB6011 challenge
  ID50, TLR7 knockdown, PO gavage: 286 μg delivery dose
[2]; 0.39 mg/kg PO daily x7 days
  AUC(0-t)/D: 24.8 ng · h/mL/mg/kg/day
  Cmax/D: 13.4 ng/mL/mg/kg/day
  AUC(0-t): 9.68 ng·h/mL
  Cmax: 5.24 ng/mL
  Tmax: 3.8 h
  concentration at 2 h: 2.5 ng/mL
  concentration at 3 h: 3.88 ng/mL
  concentration at 4 h: 5.57 ng/mL
  concentration at 5 h: 6.47 ng/mL
  AUC: 133 ng·h/mL
  half-life: 8.75 h
[2]; 1.56 mg/kg PO daily x7 days
  AUC(0-t)/D: 13.6 ng · h/mL/mg/kg/day
  Cmax/D: 6.96 ng/mL/mg/kg/day
  AUC(0-t): 21.3 ng·h/mL
  Cmax: 10.9 ng/mL
  Tmax: 4 h
  concentration at 2 h: 3.93 ng/mL
  concentration at 3 h: 8.2 ng/mL
  concentration at 4 h: 7.8 ng/mL
  concentration at 5 h: 7.76 ng/mL
  AUC: 231 ng·h/mL
  half-life: 21.2 h
[2]; 6.25 mg/kg PO daily x7 days
  AUC(0-t)/D: 34.8 ng · h/mL/mg/kg/day
  Cmax/D: 15.2 ng/mL/mg/kg/day
  AUC(0-t): 217 ng·h/mL
  Cmax: 95 ng/mL
  Tmax: 3.2 h
  concentration at 2 h: 27 ng/mL
  concentration at 3 h: 94.8 ng/mL
  concentration at 4 h: 77.8 ng/mL
  concentration at 5 h: 63.8 ng/mL
  AUC: 609 ng·h/mL
  half-life: 4.09 h
[2]; 25 mg/kg PO daily x7 days
  AUC(0-t)/D: 63 ng · h/mL/mg/kg/day
  Cmax/D: 28.4 ng/mL/mg/kg/day
  AUC(0-t): 1570 ng·h/mL
  Cmax: 711 ng/mL
  Tmax: 3 h
  concentration at 2 h: 401 ng/mL
  concentration at 3 h: 711 ng/mL
  concentration at 4 h: 487 ng/mL
  concentration at 5 h: 366 ng/mL
  AUC: 2770 ng·h/mL
  half-life: 2.2 h
[3]
  AMES test: no toxicity
